# Test results taken from EP4740948A1 (Dong Wha Pharm. Co., Ltd., priority 2023, dated 2025).
# Key:
# SW-13 cells = assay: Cancer cell proliferation inhibition (Cell Counting Kit-8), adrenal cancer cell line; format: cell-based; details: Homo sapiens, SW13, 264 h, 1000 nM, cultured seven to 11 days; read-out: % inhibition rate SW-13
# Outline: (§1)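 Single-concentration test: 1000 nM compound, 7-11 day culture after seeding 100 to 1,000 cells per well in 10% FBS medium. Percent inhibition derived from Cell Counting Kit-8 signal relative to untreated control.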
# MIA-PaCa-2 cells = assay: Cancer cell proliferation inhibition (Cell Counting Kit-8), pancreatic cancer cell line; format: cell-based; details: Homo sapiens, MIA PaCa-2, 264 h, 1000 nM, cultured seven to 11 days; read-out: % inhibition rate MIA-Paca2
# Outline: as §1
# Lovo cells = assay: Cancer cell proliferation inhibition (Cell Counting Kit-8), colorectal cancer cell line; format: cell-based; details: Homo sapiens, LoVo, 264 h, 1000 nM, cultured seven to 11 days; read-out: % inhibition rate LoVo
# Outline: as §1
# MKN-45 cells = assay: Cancer cell proliferation inhibition (Cell Counting Kit-8), gastric cancer cell line; format: cell-based; details: Homo sapiens, MKN-45, 264 h, 1000 nM, cultured seven to 11 days; read-out: % inhibition rate MKN -45
# Outline: (§2)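 Single 1000 nM dose of test substance, applied to cells seeded at 100–1,000 per well in 10% FBS medium, then culture for seven to 11 days. CCK-8 read-out; inhibition rate expressed as percent relative to untreated control.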
# EZH1 = EZH1 (Homo sapiens, UniProt Q92800); assay: AlphaLISA enzyme activity inhibition, EZH1; format: biochemical; details: for inhibition at 0.005 µM: 5nM test substance; for inhibition at 0.01 µM: 10nM test substance
# Outline: (§3)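 Enzyme inhibition rate was calculated relative to DMSO from AlphaLISA signal, with acceptor beads added after a 2 h methylation reaction and donor beads 1 h later. Each enzyme, EZH1 or EZH2, was pre-mixed with compound (final 5 nM or 10 nM) in Tris buffer pH 8.0 before histone H3 peptide and SAM initiated the reaction.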
# NCI-H1299 cells = assay: Cancer cell proliferation inhibition (Cell Counting Kit-8), lung cancer cell line; format: cell-based; details: Homo sapiens, NCI-H1299, 264 h, 1000 nM, cultured seven to 11 days; read-out: % inhibition rate NCI-H129 9
# Outline: as §1
# G401 cells = assay: Cancer cell proliferation inhibition (Cell Counting Kit-8), rhabdoid tumor cell line; format: cell-based; details: Homo sapiens, G-401, 264 h, 1000 nM, cultured seven to 11 days; read-out: % inhibition rate G401
# Outline: as §2
# EZH2 = EZH2 (Homo sapiens, UniProt Q15910); assay: AlphaLISA enzyme activity inhibition, EZH2; format: biochemical; details: for inhibition at 0.005 µM: 5nM test substance; for inhibition at 0.01 µM: 10nM test substance
# Outline: as §3
# Chain of EZH2 (Q15910 whole entry, species assumed): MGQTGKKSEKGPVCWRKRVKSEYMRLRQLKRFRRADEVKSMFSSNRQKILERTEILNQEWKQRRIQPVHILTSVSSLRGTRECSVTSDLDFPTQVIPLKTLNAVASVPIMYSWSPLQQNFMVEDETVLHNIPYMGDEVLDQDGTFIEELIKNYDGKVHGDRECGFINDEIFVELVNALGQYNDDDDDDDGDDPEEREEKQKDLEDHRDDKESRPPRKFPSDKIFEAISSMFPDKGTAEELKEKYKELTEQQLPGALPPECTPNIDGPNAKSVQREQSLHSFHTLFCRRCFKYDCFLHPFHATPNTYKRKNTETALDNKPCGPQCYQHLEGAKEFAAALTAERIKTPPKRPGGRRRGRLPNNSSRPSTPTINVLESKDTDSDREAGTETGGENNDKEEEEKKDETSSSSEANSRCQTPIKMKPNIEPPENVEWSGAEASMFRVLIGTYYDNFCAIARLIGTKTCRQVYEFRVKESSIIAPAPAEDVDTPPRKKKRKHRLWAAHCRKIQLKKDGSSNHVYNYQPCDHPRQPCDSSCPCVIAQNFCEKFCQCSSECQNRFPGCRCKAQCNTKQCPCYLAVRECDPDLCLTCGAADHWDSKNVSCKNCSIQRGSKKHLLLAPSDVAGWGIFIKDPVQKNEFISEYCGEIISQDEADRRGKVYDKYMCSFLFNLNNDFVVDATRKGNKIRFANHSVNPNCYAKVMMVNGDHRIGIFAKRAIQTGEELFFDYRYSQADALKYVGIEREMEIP
# Chain of EZH2 (O75530 whole entry partner, species assumed): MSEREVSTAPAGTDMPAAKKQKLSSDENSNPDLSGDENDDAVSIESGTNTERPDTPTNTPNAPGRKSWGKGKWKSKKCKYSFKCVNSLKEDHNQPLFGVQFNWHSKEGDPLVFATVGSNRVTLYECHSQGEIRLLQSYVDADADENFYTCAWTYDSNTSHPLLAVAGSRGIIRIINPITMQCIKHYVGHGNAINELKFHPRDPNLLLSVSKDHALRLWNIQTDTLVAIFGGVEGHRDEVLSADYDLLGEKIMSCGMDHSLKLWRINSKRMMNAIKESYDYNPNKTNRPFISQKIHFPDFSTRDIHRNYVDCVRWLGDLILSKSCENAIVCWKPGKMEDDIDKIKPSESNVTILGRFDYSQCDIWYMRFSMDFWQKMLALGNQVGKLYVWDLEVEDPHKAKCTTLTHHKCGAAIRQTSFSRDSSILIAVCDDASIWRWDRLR
# Chain of EZH2 (Q15022 whole entry partner, species assumed): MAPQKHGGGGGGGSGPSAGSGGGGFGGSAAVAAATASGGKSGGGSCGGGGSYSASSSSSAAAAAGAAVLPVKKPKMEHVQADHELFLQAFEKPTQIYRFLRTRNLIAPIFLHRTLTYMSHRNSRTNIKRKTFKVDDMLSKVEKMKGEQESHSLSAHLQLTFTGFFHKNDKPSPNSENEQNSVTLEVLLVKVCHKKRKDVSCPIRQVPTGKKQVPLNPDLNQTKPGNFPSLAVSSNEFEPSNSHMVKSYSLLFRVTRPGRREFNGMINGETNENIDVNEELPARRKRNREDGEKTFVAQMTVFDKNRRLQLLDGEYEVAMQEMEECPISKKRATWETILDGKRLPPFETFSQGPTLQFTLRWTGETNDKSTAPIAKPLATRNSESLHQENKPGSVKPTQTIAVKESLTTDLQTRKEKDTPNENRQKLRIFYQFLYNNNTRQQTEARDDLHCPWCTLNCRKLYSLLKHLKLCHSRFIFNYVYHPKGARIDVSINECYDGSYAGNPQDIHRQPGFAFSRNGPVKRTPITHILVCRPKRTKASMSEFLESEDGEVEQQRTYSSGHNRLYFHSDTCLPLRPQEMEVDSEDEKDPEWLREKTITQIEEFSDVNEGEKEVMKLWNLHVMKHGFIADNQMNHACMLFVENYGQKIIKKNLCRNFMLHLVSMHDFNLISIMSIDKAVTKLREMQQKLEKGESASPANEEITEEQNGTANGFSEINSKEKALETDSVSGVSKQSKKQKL
# Chain of EZH1 (Q92800 whole entry, species assumed): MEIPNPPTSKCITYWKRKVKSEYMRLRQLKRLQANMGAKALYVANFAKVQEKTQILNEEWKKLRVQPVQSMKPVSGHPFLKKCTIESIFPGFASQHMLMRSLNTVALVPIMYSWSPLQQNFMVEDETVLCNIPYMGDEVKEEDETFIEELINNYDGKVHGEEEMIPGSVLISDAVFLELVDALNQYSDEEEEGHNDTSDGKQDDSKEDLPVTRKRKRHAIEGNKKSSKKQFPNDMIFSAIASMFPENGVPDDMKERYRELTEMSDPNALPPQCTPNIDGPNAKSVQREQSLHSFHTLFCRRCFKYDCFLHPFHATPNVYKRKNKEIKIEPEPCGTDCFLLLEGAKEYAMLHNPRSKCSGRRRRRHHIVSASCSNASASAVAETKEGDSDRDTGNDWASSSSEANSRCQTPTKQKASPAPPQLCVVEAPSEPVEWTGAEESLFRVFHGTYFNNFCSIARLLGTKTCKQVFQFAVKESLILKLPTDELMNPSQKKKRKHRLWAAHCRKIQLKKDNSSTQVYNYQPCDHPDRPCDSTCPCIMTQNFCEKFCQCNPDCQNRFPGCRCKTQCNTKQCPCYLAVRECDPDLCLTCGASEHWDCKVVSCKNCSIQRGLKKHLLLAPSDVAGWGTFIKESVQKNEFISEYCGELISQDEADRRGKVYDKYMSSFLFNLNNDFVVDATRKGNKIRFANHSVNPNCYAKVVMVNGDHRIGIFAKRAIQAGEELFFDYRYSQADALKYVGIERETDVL
# Chain of EZH1 (O75530 whole entry partner, species assumed): as the sequence (O75530 whole entry partner, species assumed) above
# Chain of EZH1 (Q15022 whole entry partner, species assumed): as the sequence (Q15022 whole entry partner, species assumed) above
inhibition at 0.005 µM (EZH1) [%],inhibition at 0.005 µM (EZH2) [%],inhibition at 0.01 µM (EZH1) [%],inhibition at 0.01 µM (EZH2) [%],Compound,inhibition at 1 µM (SW-13 cells) [%],inhibition at 1 µM (MIA-PaCa-2 cells) [%],inhibition at 1 µM (Lovo cells) [%],inhibition at 1 µM (MKN-45 cells) [%],inhibition at 1 µM (NCI-H1299 cells) [%],inhibition at 1 µM (G401 cells) [%]
24.9,41.1,,,"CSc1cc(C)[nH]c(=O)c1CNC(=O)c1cc(-c2ccc(N3CCSCC3)nc2)c2c(c1C)OC(C)(C1CCN(CC(F)(F)F)CC1)O2 (stereo not drawn) [Compound 34, 2,4-dimethyl-N-((6-methyl-4-(methylthio)-2-oxo-1,2-dihydropyridin-3-yl)methyl)-7-(6-thiomorpholinopyridin-3-yl)-2-(1-(2,2,2-trifluoroethyl)piperidin-4-yl)benzo[d][1,3]dioxole-5-carboxamide]",≤ 30,≤ 30,≥ 70,≤ 30,≤ 30,30 to 70
67.7,94,,,"CSc1cc(C)[nH]c(=O)c1CNC(=O)c1cc(-c2cnc(N(C)C)nc2)c2c(c1C)OC(C)(C1CCN(CC(F)(F)F)CC1)O2 (stereo not drawn) [Compound 35, 7-(2-(dimethylamino)pyrimidin-5-yl)-2,4-dimethyl-N-((6-methyl-4-(methylthio)-2-oxo-1,2-dihydropyridin-3-yl)methyl)-2-(1-(2,2,2-trifluoroethyl)piperidin-4-yl)benzo[d][1,3]dioxole-5-carboxamide]",≤ 30,≤ 30,≥ 70,≤ 30,≤ 30,≥ 70
57.4,83.1,,,"COc1ccc(-c2cc(C(=O)NCc3c(SC)cc(C)[nH]c3=O)c(C)c3c2OC(C)(C2CCN(CC(F)(F)F)CC2)O3)cn1 (stereo not drawn) [Compound 36, 7-(6-methoxypyridin-3-yl)-2,4-dimethyl-N-((6-methyl-4-(methylthio)-2-oxo-1,2-dihydropyridin-3-yl)methyl)-2-(1-(2,2,2-trifluoroethyl)piperidin-4-yl)benzo[d][1,3]dioxole-5-carboxamide]",≤ 30,≤ 30,≥ 70,≤ 30,≤ 30,≥ 70
40.6,57.4,,,"CSc1cc(C)[nH]c(=O)c1CNC(=O)c1cc(-c2cnc(N3C[C@@H](C)O[C@@H](C)C3)nc2)c2c(c1C)OC(C)(C1CCN(CC(F)(F)F)CC1)O2 (stereo partly drawn) [Compound 38, 7-(2-((2S,6R)-2,6-dimethylmorpholino)pyrimidin-5-yl)-2,4-dimethyl-N-((6-methyl-4-(methylthio)-2-oxo-1,2-dihydropyridin-3-yl)methyl)-2-(1-(2,2,2-trifluoroethyl)piperidin-4-yl)benzo[d][1,3]dioxole-5-carboxamide]",≤ 30,≤ 30,≥ 70,30 to 70,30 to 70,≥ 70
20.5,62,,,"CSc1cc(C)[nH]c(=O)c1CNC(=O)c1cc(-c2cnc(N3CCCCC3)nc2)c2c(c1C)OC(C)(C1CCN(CC(F)(F)F)CC1)O2 (stereo not drawn) [Compound 39, 2,4-dimethyl-N-((6-methyl-4-(methylthio)-2-oxo-1,2-dihydropyridin-3-yl)methyl)-7-(2-(piperidin-1-yl)pyrimidin-5-yl)-2-(1-(2,2,2-trifluoroethyl)piperidin-4-yl)benzo[d][1,3]dioxole-5-carboxamide]",≤ 30,≤ 30,≥ 70,≤ 30,≤ 30,30 to 70
73.8,94.6,,,"CSc1cc(C)[nH]c(=O)c1CNC(=O)c1cc(-c2ccc(N3C[C@@H](C)O[C@@H](C)C3)nc2)c2c(c1C)OC(C)(C1CCN(C[C@H](C)O)CC1)O2 (stereo partly drawn) [Compound 40, 7-(6-((2S,6R)-2,6-dimethylmorpholino)pyridin-3-yl)-2-(1-((S)-2-hydroxypropyl)piperidin-4-yl)-2,4-dimethyl-N-((6-methyl-4-(methylthio)-2-oxo-1,2-dihydropyridin-3-yl)methyl)benzo[d][1,3]dioxole-5-carboxamide]",30 to 70,≤ 30,30 to 70,≤ 30,30 to 70,≥ 70
69.1,96.8,,,"COC(CN1CCC(C2(C)Oc3c(-c4ccc(N5C[C@@H](C)O[C@@H](C)C5)nc4)cc(C(=O)NCc4c(SC)cc(C)[nH]c4=O)c(C)c3O2)CC1)OC (stereo partly drawn) [Compound 41, 2-(1-(2,2-dimethoxyethyl)piperidin-4-yl)-7-(6-((2S,6R)-2,6-dimethylmorpholino)pyridin-3-yl)-2,4-dimethyl-N-((6-methyl-4-(methylthio)-2-oxo-1,2-dihydropyridin-3-yl)methyl)benzo[d][1,3]dioxole-5-carboxamide]",≤ 30,≤ 30,≥ 70,≤ 30,≤ 30,≥ 70
59.6,90.5,,,"CSc1cc(C)[nH]c(=O)c1CNC(=O)c1cc(-c2ccsc2)c2c(c1C)OC(C)(C1CCC(N(C)C)CC1)O2 (stereo not drawn) [Compound 42, 2-(4-(dimethylamino)cyclohexyl)-2,4-dimethyl-N-((6-methyl-4-(methylthio)-2-oxo-1,2-dihydropyridin-3-yl)methyl)-7-(thiophen-3-yl)benzo[d][1,3]dioxole-5-carboxamide]",30 to 70,≤ 30,≥ 70,30 to 70,30 to 70,≥ 70
65.6,94.6,,,"COc1ccc(F)cc1-c1cc(C(=O)NCc2c(SC)cc(C)[nH]c2=O)c(C)c2c1OC(C)(C1CCC(N(C)C)CC1)O2 (stereo not drawn) [Compound 43, 2-(4-(dimethylamino)cyclohexyl)-7-(5-fluoro-2-methoxyphenyl)-2,4-dimethyl-N-((6-methyl-4-(methylthio)-2-oxo-1,2-dihydropyridin-3-yl)methyl)benzo[d][1,3]dioxole-5-carboxamide]",≤ 30,≤ 30,≥ 70,30 to 70,30 to 70,≥ 70
44.7,59.2,63,84,"CSc1cc(C)[nH]c(=O)c1CNC(=O)c1cc(-c2ccc(N3C[C@@H](C)O[C@@H](C)C3)nc2)c2c(c1C)OC(C)(C1CCN(CC(F)F)CC1)O2 (stereo partly drawn) [Compound 46, 2-(1-(2,2-difluoroethyl)piperidin-4-yl)-7-(6-((2S,6R)-2,6-dimethylmorpholino)pyridin-3-yl)-2,4-dimethyl-N-((6-methyl-4-(methylthio)-2-oxo-1,2-dihydropyridin-3-yl)methyl)benzo[d][1,3]dioxole-5-carboxamide]",30 to 70,≤ 30,≥ 70,30 to 70,30 to 70,≥ 70
53,86.5,78.2,99.4,"CSc1cc(C)[nH]c(=O)c1CNC(=O)c1cc(-c2ccc(N3CCOCC3)nc2)c2c(c1C)OC(C)(C1CCN(CC(F)(F)F)CC1)O2 (stereo not drawn) [Compound 61, 2,4-dimethyl-N-((6-methyl-4-(methylthio)-2-oxo-1,2-dihydropyridin-3-yl)methyl)-7-(6-morpholinopyridin-3-yl)-2-(1-(2,2,2-trifluoro)piperidin-4-yl)benzo[d][1,3]dioxole-5-carboxamide]",≤ 30,≤ 30,≥ 70,30 to 70,30 to 70,≥ 70
56.4,87.3,78.9,99.7,"CSc1cc(C)[nH]c(=O)c1CNC(=O)c1cc(-c2cnc(N3CCOCC3)nc2)c2c(c1C)OC(C)(C1CCN(CC(F)(F)F)CC1)O2 (stereo not drawn) [Compound 68, 2,4-dimethyl-N-((6-methyl-4-(methylthio)-2-oxo-1,2-dihydropyridin-3-yl)methyl)-7-(2-morpholinopyrimidin-5-yl)-2-(1-(2,2,2-trifluoro)piperidin-4-yl)benzo[d][1,3]dioxole-5-carboxamide]",30 to 70,≤ 30,≥ 70,30 to 70,≤ 30,≥ 70
